Calls of active or inactive are those of the source. The calls are words filed in the database; no cut-off is given here.
Columns and labels:
Rattus norvegicus [1] = assay: Antidepressant activity against ig dosed ACTH-induced treatment resistant depression in Sprague-Dawley rat model assessed as reduction in immobility time by forced swimming test; format: functional; settings: po
[2] = molecular target: Sigma intracellular receptor 2 (Homo sapiens, UniProt Q5BJF2); assay: Binding affinity to sigma 2 receptor (unknown origin)
Sequence of Sigma intracellular receptor 2 (Q5BJF2 whole entry): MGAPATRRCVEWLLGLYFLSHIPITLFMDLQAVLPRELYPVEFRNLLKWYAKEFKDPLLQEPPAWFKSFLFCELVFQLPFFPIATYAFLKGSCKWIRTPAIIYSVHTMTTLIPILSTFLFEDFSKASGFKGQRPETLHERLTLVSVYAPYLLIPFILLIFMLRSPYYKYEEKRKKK

[3] = molecular target: T1, 5-hydroxytryptamine receptor 2A (Homo sapiens, UniProt P28223); assay: Antagonist activity at 5-HT2A in HEK293 cells incubated for 60 mins by FLIPR assay; format: cell-based
T1 sequence (P28223 whole entry): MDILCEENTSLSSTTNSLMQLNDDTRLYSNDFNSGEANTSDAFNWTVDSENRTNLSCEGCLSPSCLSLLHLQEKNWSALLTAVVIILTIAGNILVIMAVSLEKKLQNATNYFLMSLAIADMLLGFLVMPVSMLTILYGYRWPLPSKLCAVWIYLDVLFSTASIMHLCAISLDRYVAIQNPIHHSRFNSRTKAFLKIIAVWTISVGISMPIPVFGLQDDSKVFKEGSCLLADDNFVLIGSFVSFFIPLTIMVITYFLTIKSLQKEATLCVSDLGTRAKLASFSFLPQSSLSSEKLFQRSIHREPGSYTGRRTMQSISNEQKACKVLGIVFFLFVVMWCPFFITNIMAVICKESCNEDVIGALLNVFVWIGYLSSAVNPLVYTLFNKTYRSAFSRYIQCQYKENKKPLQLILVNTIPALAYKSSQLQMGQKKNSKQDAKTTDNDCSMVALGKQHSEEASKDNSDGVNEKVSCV

[4] = Cmax in CD1 mouse at 2 mg/kg, iv measured upto 10 hrs by LC-MS analysis; format: ADME, organism-based; settings: in vivo
[5] = molecular target: T2, 5-hydroxytryptamine receptor 2C (Homo sapiens) (UniProt P28335); assay: Antagonist activity at 5-HT2C in HEK293 cells at 10 uM incubated for 60 mins by FLIPR assay relative to control; format: cell-based; parameters: scale not given: the % may be the effect or the level left; settings: filed as antagonist
T2 sequence (whole entry): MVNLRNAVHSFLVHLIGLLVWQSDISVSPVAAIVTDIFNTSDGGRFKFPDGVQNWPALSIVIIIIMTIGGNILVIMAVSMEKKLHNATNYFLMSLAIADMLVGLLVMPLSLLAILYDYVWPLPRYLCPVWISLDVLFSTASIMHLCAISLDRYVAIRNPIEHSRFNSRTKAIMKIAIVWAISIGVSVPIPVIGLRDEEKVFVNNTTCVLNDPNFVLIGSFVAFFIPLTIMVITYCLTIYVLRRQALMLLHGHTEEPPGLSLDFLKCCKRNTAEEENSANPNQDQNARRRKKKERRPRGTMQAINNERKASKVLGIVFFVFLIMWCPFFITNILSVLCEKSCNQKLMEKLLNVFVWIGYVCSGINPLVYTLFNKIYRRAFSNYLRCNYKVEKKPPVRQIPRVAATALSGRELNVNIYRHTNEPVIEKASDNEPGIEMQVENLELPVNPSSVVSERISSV

[6] = molecular target: T1, 5-hydroxytryptamine receptor 2A; assay: Agonist activity at 5-HT2A in HEK293 cells at 10 uM incubated for 60 mins by FLIPR assay relative to control; format: functional, cell-based; settings: filed as agonist
Histamine H3 receptor = Histamine H3 receptor (Homo sapiens, UniProt Q9Y5N1); assay: Binding affinity to H3 receptor (unknown origin)
Sequence of Histamine H3 receptor (Q9Y5N1 whole entry): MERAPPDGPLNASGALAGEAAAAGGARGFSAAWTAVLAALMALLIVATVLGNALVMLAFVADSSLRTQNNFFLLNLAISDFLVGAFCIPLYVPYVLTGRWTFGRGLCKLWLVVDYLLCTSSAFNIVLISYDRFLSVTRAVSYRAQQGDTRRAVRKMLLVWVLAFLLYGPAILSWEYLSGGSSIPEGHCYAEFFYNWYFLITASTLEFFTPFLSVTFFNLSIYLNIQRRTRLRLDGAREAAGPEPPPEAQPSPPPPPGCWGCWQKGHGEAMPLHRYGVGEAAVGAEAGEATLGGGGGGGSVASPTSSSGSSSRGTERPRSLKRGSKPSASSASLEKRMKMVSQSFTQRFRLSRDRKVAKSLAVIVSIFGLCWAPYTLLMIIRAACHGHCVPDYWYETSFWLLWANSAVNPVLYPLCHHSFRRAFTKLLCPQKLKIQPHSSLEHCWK

[7] = molecular target: T2, 5-hydroxytryptamine receptor 2C (Homo sapiens); assay: Agonist activity at 5-HT2C in HEK293 cells at 10 uM incubated for 60 mins by FLIPR assay relative to control; format: functional, cell-based; settings: filed as agonist
[8] = molecular target: Muscarinic acetylcholine receptor M2 (Homo sapiens, UniProt P08172); assay: Binding affinity to M2 receptor (unknown origin)
Sequence of Muscarinic acetylcholine receptor M2 (P08172 whole entry): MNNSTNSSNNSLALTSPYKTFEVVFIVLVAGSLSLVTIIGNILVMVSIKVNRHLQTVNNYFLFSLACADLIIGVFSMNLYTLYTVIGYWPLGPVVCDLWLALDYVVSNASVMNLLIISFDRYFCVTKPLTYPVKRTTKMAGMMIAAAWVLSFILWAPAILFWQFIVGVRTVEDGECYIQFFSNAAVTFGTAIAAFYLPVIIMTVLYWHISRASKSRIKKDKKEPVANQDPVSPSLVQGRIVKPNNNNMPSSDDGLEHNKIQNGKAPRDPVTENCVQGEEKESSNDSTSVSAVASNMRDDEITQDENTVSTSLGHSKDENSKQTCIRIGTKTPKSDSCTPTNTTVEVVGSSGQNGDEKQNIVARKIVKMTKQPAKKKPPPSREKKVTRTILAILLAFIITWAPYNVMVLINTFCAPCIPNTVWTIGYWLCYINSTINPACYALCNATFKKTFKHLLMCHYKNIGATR

Mus musculus [9] = assay: Antidepressant activity in Kunming mouse chronic unpredictable mild stress model assessed as increase in sucrose preference at 2 to 6 mg/kg, IG measured after 3 weeks; format: functional, organism-based; settings: dose 2-6 mg/kg
Mus musculus [10] = assay: Antidepressant activity in IG dosed Kunming mouse assessed as decrease in immobility time by measuring minimal effective dose by tail suspension test; format: functional
[11] = molecular target: Muscarinic acetylcholine receptor M5 (Homo sapiens, UniProt P08912); assay: Binding affinity to M5 receptor (unknown origin)
Sequence of Muscarinic acetylcholine receptor M5 (P08912 whole entry): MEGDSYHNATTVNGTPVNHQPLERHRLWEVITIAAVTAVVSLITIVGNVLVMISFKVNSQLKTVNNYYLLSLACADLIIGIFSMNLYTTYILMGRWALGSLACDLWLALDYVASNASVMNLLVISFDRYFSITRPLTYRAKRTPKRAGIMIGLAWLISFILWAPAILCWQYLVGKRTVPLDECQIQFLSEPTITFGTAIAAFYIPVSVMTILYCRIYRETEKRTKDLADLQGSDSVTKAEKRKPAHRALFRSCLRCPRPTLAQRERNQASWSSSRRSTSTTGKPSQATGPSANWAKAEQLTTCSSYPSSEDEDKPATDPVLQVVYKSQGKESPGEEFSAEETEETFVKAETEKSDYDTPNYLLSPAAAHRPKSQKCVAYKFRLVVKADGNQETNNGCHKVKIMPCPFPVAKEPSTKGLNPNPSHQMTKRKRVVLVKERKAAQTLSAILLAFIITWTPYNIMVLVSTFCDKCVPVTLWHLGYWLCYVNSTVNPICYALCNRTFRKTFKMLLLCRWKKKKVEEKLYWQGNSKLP

D(2) dopamine receptor = D(2) dopamine receptor (Homo sapiens, UniProt P14416); assay: Binding affinity to D2 receptor (unknown origin)
Sequence of D(2) dopamine receptor (P14416 whole entry): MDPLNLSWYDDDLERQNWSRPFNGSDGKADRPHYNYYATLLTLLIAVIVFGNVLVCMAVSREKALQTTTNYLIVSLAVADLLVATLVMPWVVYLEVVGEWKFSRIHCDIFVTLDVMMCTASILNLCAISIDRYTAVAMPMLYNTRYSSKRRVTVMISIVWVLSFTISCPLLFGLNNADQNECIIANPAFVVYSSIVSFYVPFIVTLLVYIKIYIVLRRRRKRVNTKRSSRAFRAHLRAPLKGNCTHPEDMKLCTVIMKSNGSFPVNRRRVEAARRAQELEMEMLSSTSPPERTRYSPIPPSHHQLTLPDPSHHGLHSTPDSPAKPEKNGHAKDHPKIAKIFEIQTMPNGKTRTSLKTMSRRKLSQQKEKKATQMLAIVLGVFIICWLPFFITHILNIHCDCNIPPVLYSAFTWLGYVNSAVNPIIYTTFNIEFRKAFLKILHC

[12] = Cmax in CD1 mouse at 15 mg/kg, po measured upto 24 hrs by LC-MS analysis; format: ADME, organism-based; settings: in vivo
[13] = molecular target: 5-hydroxytryptamine receptor 2C (Homo sapiens, UniProt P28335); assay: Antagonist activity at 5-HT2C in HEK293 cells incubated for 60 mins by FLIPR assay; format: cell-based
[14] = molecular target: 5-hydroxytryptamine receptor 2A (Rattus norvegicus, UniProt P14842); assay: Displacement of [3H]-ketanserin from 5-HT2A in rat cerebral cortex incubated for 15 mins by liquid scintillation counting method; format: tissue-based
D(3) dopamine receptor = D(3) dopamine receptor (Homo sapiens, UniProt P35462); assay: Binding affinity to D3 receptor (unknown origin)
[15] = AUC(0 to infinity) in CD1 mouse at 15 mg/kg, po measured upto 24 hrs by LC-MS analysis; format: ADME, organism-based; settings: in vivo
[16] = Tmax in CD1 mouse at 15 mg/kg, po measured upto 24 hrs by LC-MS analysis; format: ADME, organism-based; settings: in vivo
[17] = Tmax in CD1 mouse at 2 mg/kg, iv measured upto 10 hrs by LC-MS analysis; format: ADME, organism-based; settings: in vivo
D(1A) dopamine receptor = D(1A) dopamine receptor (Homo sapiens, UniProt P21728); assay: Binding affinity to D1 receptor (unknown origin)
Sequence of D(1A) dopamine receptor (P21728 whole entry): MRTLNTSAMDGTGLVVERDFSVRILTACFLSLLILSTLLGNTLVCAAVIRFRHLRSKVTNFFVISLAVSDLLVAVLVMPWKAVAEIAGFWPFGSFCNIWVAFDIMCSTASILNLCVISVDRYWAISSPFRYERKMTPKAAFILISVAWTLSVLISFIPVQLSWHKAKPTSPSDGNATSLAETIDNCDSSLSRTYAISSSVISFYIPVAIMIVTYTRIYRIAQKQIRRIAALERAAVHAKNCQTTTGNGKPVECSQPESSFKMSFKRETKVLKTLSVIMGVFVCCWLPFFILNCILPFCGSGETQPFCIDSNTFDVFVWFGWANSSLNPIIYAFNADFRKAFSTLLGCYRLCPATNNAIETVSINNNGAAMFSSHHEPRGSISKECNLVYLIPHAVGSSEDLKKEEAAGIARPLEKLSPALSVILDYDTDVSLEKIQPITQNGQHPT

Mus musculus [18] = assay: Antidepressant activity in Kunming mouse assessed as effect on spontaneous locomotor activity by measuring total travel distance at 7.5 to 60 mg/kg, po administered for 60 mins and measured for 15 mins; format: functional, organism-based; settings: dose lower […], dose upper 60.0 mg/kg
Mus musculus [19] = assay: (§1) In vivo inhibition of 5-HT2A in po dosed DOI-induced Kunming mouse assessed as reduction in head twitch response pretreated for 60 mins followed by DOI induction and measured for 20 mins; format: functional; settings: time 80.0 min
[20] = as §1; format: functional; settings: 1.333 h, time 80 min
[21] = MRTlast in CD1 mouse at 2 mg/kg, iv measured upto 10 hrs by LC-MS analysis; format: ADME, organism-based; settings: in vivo
Rattus norvegicus [22] = assay: Antidepressant activity against ACTH-induced treatment resistant depression in Sprague-Dawley rat model assessed as reduction in immobility time at 20 to 40 mg/kg, IG by forced swimming test; format: functional, organism-based; settings: dose 20-40 mg/kg
[23] = Half-life in CD1 mouse at 2 mg/kg, iv measured upto 10 hrs by LC-MS analysis; format: ADME, organism-based; settings: in vivo
[24] = Acute toxicity in po dosed Sprague-Dawley rat assessed as mortality rate measured after 24 hrs; format: organism-based; settings: in vivo
Transporter = Transporter (Rattus norvegicus, UniProt Q63380); assay: Antagonist activity at rat cerebral cortex membrane NET incubated for 10 mins in presence of [3H]-NE; format: cell membranes
Sequence of Transporter (Q63380 whole entry): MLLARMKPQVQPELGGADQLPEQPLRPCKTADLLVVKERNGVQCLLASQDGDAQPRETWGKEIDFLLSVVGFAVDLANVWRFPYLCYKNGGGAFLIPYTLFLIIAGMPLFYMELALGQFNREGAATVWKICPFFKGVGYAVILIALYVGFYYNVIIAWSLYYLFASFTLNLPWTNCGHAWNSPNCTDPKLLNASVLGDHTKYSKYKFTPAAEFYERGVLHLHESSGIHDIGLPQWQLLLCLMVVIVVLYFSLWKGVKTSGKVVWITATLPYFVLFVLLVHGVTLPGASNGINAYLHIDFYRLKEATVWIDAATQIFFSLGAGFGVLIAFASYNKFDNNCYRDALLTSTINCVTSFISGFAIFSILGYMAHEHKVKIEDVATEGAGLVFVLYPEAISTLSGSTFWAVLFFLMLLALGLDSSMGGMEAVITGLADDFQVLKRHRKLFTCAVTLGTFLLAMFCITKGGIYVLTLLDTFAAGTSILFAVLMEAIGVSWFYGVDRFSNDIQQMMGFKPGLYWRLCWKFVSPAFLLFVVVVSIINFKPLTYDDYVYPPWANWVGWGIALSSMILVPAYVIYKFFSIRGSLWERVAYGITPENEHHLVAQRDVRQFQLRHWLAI

[25] = molecular target: Sodium-dependent serotonin transporter (Rattus norvegicus, UniProt P31652); assay: Displacement of [3H]-paroxetine from SERT in rat cerebral cortex incubated for 10 mins by liquid scintillation counting method; format: tissue-based
[26] = molecular target: 5-hydroxytryptamine receptor 1A (Homo sapiens, UniProt P08908); assay: Binding affinity to 5-HT1A receptor (unknown origin)
[27] = MRTlast in CD1 mouse at 15 mg/kg, po measured upto 24 hrs by LC-MS analysis; format: ADME, organism-based; settings: in vivo
[28] = molecular target: Sodium-dependent serotonin transporter (Rattus norvegicus) (UniProt P31652); assay: Agonist activity at rat cerebral cortex membrane SERT at 10 uM incubated for 10 mins in presence of [3H]5-HT relative to control; format: cell membranes
Sequence of Sodium-dependent serotonin transporter (Rattus norvegicus) (P31652 whole entry): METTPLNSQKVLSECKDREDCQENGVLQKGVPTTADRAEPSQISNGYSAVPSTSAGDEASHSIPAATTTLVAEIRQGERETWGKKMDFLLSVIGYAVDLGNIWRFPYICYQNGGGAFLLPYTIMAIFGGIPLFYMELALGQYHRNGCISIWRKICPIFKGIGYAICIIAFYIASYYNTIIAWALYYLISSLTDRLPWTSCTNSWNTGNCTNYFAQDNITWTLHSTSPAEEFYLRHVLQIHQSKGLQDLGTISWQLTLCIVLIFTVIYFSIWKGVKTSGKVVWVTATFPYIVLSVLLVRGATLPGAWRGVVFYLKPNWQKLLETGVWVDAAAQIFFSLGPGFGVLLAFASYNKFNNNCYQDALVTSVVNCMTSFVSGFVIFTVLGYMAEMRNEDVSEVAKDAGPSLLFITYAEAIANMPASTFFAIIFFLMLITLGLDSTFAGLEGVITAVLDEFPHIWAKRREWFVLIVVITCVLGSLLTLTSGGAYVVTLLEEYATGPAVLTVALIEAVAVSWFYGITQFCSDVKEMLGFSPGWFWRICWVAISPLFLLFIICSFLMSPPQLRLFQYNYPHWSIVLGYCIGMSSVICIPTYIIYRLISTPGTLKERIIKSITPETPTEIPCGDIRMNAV

[29] = AUC(0 to infinity) in CD1 mouse at 2 mg/kg, iv measured upto 10 hrs by LC-MS analysis; format: ADME, organism-based; settings: in vivo
[30] = molecular target: 5-hydroxytryptamine receptor 7 (Homo sapiens, UniProt P34969); assay: Binding affinity to 5-HT7 receptor (unknown origin)
Sequence of 5-hydroxytryptamine receptor 7 (P34969 whole entry): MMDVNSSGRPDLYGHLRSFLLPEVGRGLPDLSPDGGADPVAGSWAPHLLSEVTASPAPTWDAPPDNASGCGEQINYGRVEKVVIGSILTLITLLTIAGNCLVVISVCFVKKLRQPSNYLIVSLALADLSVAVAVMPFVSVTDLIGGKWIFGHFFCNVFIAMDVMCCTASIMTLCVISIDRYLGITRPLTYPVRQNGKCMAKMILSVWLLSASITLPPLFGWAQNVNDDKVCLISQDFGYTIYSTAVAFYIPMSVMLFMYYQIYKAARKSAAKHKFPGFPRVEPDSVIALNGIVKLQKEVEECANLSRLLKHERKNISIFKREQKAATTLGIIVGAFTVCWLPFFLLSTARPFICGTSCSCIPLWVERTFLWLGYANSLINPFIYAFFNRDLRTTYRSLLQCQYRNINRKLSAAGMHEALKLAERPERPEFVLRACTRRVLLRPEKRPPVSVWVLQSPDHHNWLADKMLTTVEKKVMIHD

Question: Which results are given for CN(C)CC[C@@H](Oc1cccc2c1OCO2)c1ccc(F)cc1.O=C(O)C(=O)O?
Answer: ED50 (Rattus norvegicus [1]): 23.1 mg/kg; Ki [2]: > 1000 nM; IC50 [3]: 36.1 nM; Cmax [4]: 420 ng/mL; Activity [5]: 99.1%; Activity [6]: 103%; Ki (Histamine H3 receptor): > 1000 nM; Activity [7]: 18.1%; Ki [8]: > 1000 nM; Activity (Mus musculus [9]): Active; Activity (Mus musculus [10]): Dose-dependent-effect; minimal effective dose (Mus musculus [10]; po, read-out: MED): 6.4 mg/kg; Ki [11]: > 1000 nM; Ki (D(2) dopamine receptor): > 1000 nM; Cmax [12]: 144 ng/mL; IC50 [13]: 87.5 nM; Ki [14]: 26.4 nM; Ki (D(3) dopamine receptor): > 1000 nM; AUC(0-inf) [15]: 474 ng·h/mL; Tmax [16]: 0.5 h; Tmax [17]: 4.8 min; Ki (D(1A) dopamine receptor): > 1000 nM; Activity (Mus musculus [18]): inactive; Activity (Mus musculus [19]): Dose-dependent-effect; ED50 [20]: 1.07 mg/kg; MRT last at 10 h [21]: 1.1 h; Activity (Rattus norvegicus [22]): Active; half-life [23]: 1.2 h; LD50 at 24 h [24]: 560 mg/kg; IC50 (Transporter): 87 nM; Ki [25]: 5.8 nM; Ki [26]: > 1000 nM; MRT last at 24 h [27]: 3.1 h; Activity [28]: 2.2%; AUC(0-inf) [29]: 310 ng·h/mL; Ki [30]: > 1000 nM

From ChEMBL document CHEMBL6083240, “Design, synthesis and biological evaluation of arylpropylamine derivatives as potential multi-target antidepressants” (Bioorg Med Chem, 2024)
